The results in this text go back to article PMC10341573, “Design, Synthesis, and Biological Evaluation of Novel Quinazolin-4(3H)-One-Based Histone Deacetylase 6 (HDAC6) Inhibitors for Anticancer Activity” (International Journal of Molecular Sciences, 2023).

Molecules are shown by their SMILES.

As a reminder, the IC50 is the concentration needed to halve the response being measured.

One assay relates to MCF7 cells. The assay is described as follows: Annexin V–FITC/PI apoptosis assay by flow cytometry. Format: cell-based, human. Conditions: MCF7, 0.1 and 1 μM, 24 h. The procedure:
The efficacy of compound 5c to induce apoptosis was determined by annexin V–FITC/PI assay using flow cytometry. MCF7 cells were treated with two different concentrations of 5c as indicated, and the percentages of cells in the apoptotic and necrotic stage were analyzed, as depicted in Figure 8.
The apoptosis assay was performed using an annexin V–FITC Apoptosis detection kit (Sigma-Aldrich, APOAF) according to the manufacturer’s instructions. Cells were harvested, and 0.1 × 10^6 cells were seeded in a six-well cell culture plate and allowed to adhere followed by treatment with DMSO as the control and compound 5c at 0.1 μM and 1 μM concentrations for 24 h. The cells were trypsinized, pelleted down, and resuspended in the 1× buffer provided. The cells were stained using annexin V–FITC/PI and analyzed immediately using flow cytometry. Further analysis and plotting of graphs were conducted using Flowjo 7.6 [53].
For orientation: A flow cytometer gives signals particle by particle.

A further assay deals with T1, HDAC6 (Homo sapiens, UniProt Q9UBN7).
T1 construct: Full-length recombinant HDAC6 was purchased from BPS Bioscience; purchased BPS Bioscience
T1 sequence (Q9UBN7 1-1215): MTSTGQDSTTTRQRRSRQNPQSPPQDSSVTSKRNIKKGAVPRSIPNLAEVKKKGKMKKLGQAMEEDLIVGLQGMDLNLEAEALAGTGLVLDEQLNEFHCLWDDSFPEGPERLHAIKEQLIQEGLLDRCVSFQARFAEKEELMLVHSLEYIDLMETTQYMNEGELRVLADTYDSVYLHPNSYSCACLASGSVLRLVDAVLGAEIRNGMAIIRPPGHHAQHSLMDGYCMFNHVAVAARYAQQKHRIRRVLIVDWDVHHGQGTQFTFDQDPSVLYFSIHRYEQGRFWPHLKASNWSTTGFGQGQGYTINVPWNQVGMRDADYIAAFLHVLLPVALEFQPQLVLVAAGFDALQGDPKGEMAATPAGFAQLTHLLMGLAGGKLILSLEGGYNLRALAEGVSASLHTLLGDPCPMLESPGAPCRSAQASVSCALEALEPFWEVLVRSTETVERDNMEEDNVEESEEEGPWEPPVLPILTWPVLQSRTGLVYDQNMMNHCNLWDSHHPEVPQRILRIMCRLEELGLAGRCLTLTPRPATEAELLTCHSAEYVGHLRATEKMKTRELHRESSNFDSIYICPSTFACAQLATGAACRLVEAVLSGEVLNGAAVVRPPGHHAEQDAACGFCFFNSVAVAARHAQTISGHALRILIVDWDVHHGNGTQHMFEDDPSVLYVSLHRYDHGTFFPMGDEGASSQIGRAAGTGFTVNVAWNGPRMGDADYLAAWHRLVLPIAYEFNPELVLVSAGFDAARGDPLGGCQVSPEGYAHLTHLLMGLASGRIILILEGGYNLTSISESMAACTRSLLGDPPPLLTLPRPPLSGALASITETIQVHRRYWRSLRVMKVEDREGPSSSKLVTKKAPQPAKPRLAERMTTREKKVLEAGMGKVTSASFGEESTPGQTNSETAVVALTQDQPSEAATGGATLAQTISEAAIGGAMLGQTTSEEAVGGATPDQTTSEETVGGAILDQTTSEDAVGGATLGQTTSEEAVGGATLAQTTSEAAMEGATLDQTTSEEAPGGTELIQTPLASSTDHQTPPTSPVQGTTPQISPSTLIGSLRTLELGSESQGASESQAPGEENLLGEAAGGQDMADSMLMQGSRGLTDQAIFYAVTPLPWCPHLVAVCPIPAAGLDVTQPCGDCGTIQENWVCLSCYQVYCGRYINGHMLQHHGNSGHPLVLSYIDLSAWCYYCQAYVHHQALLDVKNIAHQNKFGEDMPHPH
The assay is described as follows: HDAC enzyme activity assay (fluorogenic, Boc-Lys(acetyl)-AMC), HDAC6. It counts as biochemical. The following applies: class IIb HDAC6; mean ± SD, triplicate.

The next assay concerns HCT116. Kind of assay: MTT cell proliferation assay, HCT116. It counts as cell-based, human. Conditions: Homo sapiens, HCT-116; MTT, 72 h; mean ± SD, triplicate; read-out: IC50 ± SD HCT116. (In general: Formazan colour is commonly taken as a measure of viable cells.)
Another assay has as its system B16. The assay is described as follows: MTT cell proliferation assay, B16. It counts as cell-based, murine. Conditions: Mus musculus, B16; MTT, 72 h; mean ± SD, triplicate; read-out: IC50 ± SD B16.

As to `Cc1ccc(-n2c(SCc3ccc(C(=O)NO)cc3)nc3ccccc3c2=O)cc1` [Compound 5c, N-hydroxy-4-(((4-oxo-3-(p-tolyl)-3,4-dihydroquinazolin-2-yl)thio)methyl)benzamide], the “state of cells with increase in concentration” value with MCF7 cells was “late apoptosis and necrosis”. The IC50 was determined as 0.58 ± 0.05 µM against HDAC6, 12.4 ± 1.41 µM with HCT116 and 15 ± 3.34 µM in the assay on B16.
